Results on 11 compounds are retold here after US9598433B2, “Hepatitis C virus inhibitors” (BRISTOL-MYERS SQUIBB COMPANY, priority 2012, dated 2017).

Like-named read-outs stand apart in the source and are kept apart here.

The EC50 is the concentration needed to bring the measured effect to its halfway point.

For assay [1], the system named is HCV genotype 1a (H77 strain) replicon in HUH-7 cells. Nature of the assay: HCV replicon luciferase reporter assay, genotype 1a. The class given is cell-based. The following applies: Hepatitis C virus, 72 h, genotype 1a replicon, 3 days incubation. The method in brief:
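Stable HUH-7 line carrying luciferase-reporter genotype 1a (H77) replicon with adaptive NS3 P1496L and NS5A S2204I mutations; 3.0×10^3 cells/well in 4% FCS, 0.5% DMSO, twenty-point 3-fold titration, 3 days at 37 °C. Renilla luminescence with 7.5 μM EnduRen; EC50 by four-parameter logistic fit; CC50 by multiplexed Cell Titer-Blue.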
(In general: In antiviral work, replicon cells carry a viral genome segment that copies itself.)

Assay [2] concerns HCV genotype 1b (Con1) replicon in HUH-7 cells. As to the kind of experiment: HCV replicon luciferase reporter assay, genotype 1b. The class given is cell-based. Conditions: Hepatitis C virus, 72 h, genotype 1b replicon, 3 days incubation. The method in brief: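 Replication was read as Renilla luciferase signal, using 7.5 μM EnduRen substrate with a 2-h incubation at 37 °C. The signal came from a HUH-7 line constitutively expressing a luciferase-tagged 1b (Con1) replicon carrying S1179I.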

As for `COc1ccc2c(O[C@@H]3C[C@H]4C(=O)N[C@]5(C(=O)NS(=O)(=O)C6(CF)CC6)C[C@H]5/C=C\CC[C@@H](C)O[C@@H](C)[C@H](NC(=O)OC(C)(C)C(C)(F)F)C(=O)N4C3)nccc2c1` [Compound 2014, 3,3-difluoro-2-methylbutan-2-yl ((2R,6S,7S,9R,13aS,14aR,16aS,Z)-14a-(((1-(fluoromethyl)cyclopropyl)sulfonyl)carbamoyl)-2-((6-methoxyisoquinolin-1-yl)oxy)-7,9-dimethyl-5,16-dioxo-2,3,5,6,7,9,10,11,13a,14,14a,15,16,16a-tetradecahydro-1H-cyclopropa[i]pyrrolo[1,2-e][1,5,8]oxadiazacyclopentadecin-6-yl)carbamate], the EC50 is 2.38 nM in assay [1] (read-out: LE_1a (EC50)); 1.01 to 5 nM in assay [1] (read-out: LE_1a (EC50, range)); 0.66 nM in assay [2] (read-out: LE_1b (EC50)); 0.51 to 1 nM in assay [2] (read-out: LE_1b (EC50, range)).

Turning to `COc1cnc(O[C@@H]2C[C@H]3C(=O)N[C@]4(C(=O)NS(=O)(=O)C5(CF)CC5)C[C@H]4/C=C\CC[C@@H](C)O[C@@H](C)[C@H](NC(=O)OC(C)(C)C(F)(F)F)C(=O)N3C2)c2ccccc12` [Compound 2015, 1,1,1-trifluoro-2-methylpropan-2-yl ((2R,6S,7S,9R,13a5,14aR,16aS,Z)-14a-(((1-(fluoromethyl)cyclopropyl)sulfonyl)carbamoyl)-2-((4-methoxyisoquinolin-1-yl)oxy)-7,9-dimethyl-5,16-dioxo-2,3,5,6,7,9,10,11,13a,14,14a,15,16,16a-tetradecahydro-1H-cyclopropa[i]pyrrolo[1,2-e][1,5,8]oxadiazacyclopentadecin-6-yl)carbamate], the EC50 in assay [1] (read-out: LE_1a (EC50, range)) was 1.01 to 5 nM; in assay [2] (read-out: LE_1b (EC50, range)), 0.51 to 1 nM.

Take `COc1cnc(O[C@@H]2C[C@H]3C(=O)N[C@]4(C(=O)NS(=O)(=O)C5(CF)CC5)C[C@H]4/C=C\CC[C@@H](C)O[C@@H](C)[C@H](NC(=O)OC(C)(C)C(F)F)C(=O)N3C2)c2ccccc12` [Compound 2016, 1,1-difluoro-2-methylpropan-2-yl ((2R,6S,7S,9R,13aS,14aR,16aS,Z)-14a-(((1-(fluoromethyl)cyclopropyl)sulfonyl)carbamoyl)-2-((4-methoxyisoquinolin-1-yl)oxy)-7,9-dimethyl-5,16-dioxo-2,3,5,6,7,9,10,11,13a,14,14a,15,16,16a-tetradecahydro-1H-cyclopropa[i]pyrrolo[1,2-e][1,5,8]oxadiazacyclopentadecin-6-yl)carbamate]: the EC50 lay within 1.01 to 5 nM in assay [1] (read-out: LE_1a (EC50, range)) and 0.51 to 1 nM in assay [2] (read-out: LE_1b (EC50, range)).

As to `COc1cc(F)cc2c(O[C@@H]3C[C@H]4C(=O)N[C@]5(C(=O)NS(=O)(=O)C6(C)CC6)C[C@H]5/C=C\CC[C@@H](C)O[C@@H](C)[C@H](NC(=O)OC(C)(C)C(F)(F)F)C(=O)N4C3)nccc12` [Compound 2017, 1,1,1-trifluoro-2-methylpropan-2-yl ((2R,6S,7S,9R,13aS,14aR,16aS,Z)-2-((7-fluoro-5-methoxyisoquinolin-1-yl)oxy)-7,9-dimethyl-14a-(((1-methylcyclopropyl)sulfonyl)carbamoyl)-5,16-dioxo-2,3,5,6,7,9,10,11,13a,14,14a,15,16,16a-tetradecahydro-1H-cyclopropa[i]pyrrolo[1,2-e][1,5,8]oxadiazacyclopentadecin-6-yl)carbamate], the half-maximal effective concentration (EC50) was 0.89 nM in assay [1] (read-out: LE_1a (EC50)); 0.51 to 1 nM in assay [1] (read-out: LE_1a (EC50, range)); 0.42 nM in assay [2] (read-out: LE_1b (EC50)); 0.1 to 0.5 nM in assay [2] (read-out: LE_1b (EC50, range)).

Turning to `COc1cc(F)cc2c(O[C@@H]3C[C@H]4C(=O)N[C@]5(C(=O)NS(=O)(=O)C6(C)CC6)C[C@H]5/C=C\CC[C@@H](C)O[C@@H](C)[C@H](NC(=O)OC(C)(C)C(C)(F)F)C(=O)N4C3)nccc12` [Compound 2018, 3,3-difluoro-2-methylbutan-2-yl ((2R,6S,7S,9R,13aS,14aR,16aS,Z)-2-((7-fluoro-5-methoxyisoquinolin-1-yl)oxy)-7,9-dimethyl-14a-(((1-methylcyclopropyl)sulfonyl)carbamoyl)-5,16-dioxo-2,3,5,6,7,9,10,11,13a,14,14a,15,16,16a-tetradecahydro-1H-cyclopropa[i]pyrrolo[1,2-e][1,5,8]oxadiazacyclopentadecin-6-yl)carbamate], the concentration giving a half-maximal response (EC50) was 0.51 to 1 nM in assay [1] (read-out: LE_1a (EC50, range)) and 0.1 to 0.5 nM in assay [2] (read-out: LE_1b (EC50, range)).

For the compound `COc1cc(F)cc2c(O[C@@H]3C[C@H]4C(=O)N[C@]5(C(=O)NS(=O)(=O)C6(C)CC6)C[C@H]5/C=C\CC[C@@H](C)O[C@@H](C)[C@H](NC(=O)OC(C)(C)C(F)F)C(=O)N4C3)nccc12` [Compound 2019, 1,1-difluoro-2-methylpropan-2-yl ((2R,6S,7S,9R,13aS,14aR,16aS,Z)-2-((7-fluoro-5-methoxyisoquinolin-1-yl)oxy)-7,9-dimethyl-14a-(((1-methylcyclopropyl)sulfonyl)carbamoyl)-5,16-dioxo-2,3,5,6,7,9,10,11,13a,14,14a,15,16,16a-tetradecahydro-1H-cyclopropa[i]pyrrolo[1,2-e][1,5,8]oxadiazacyclopentadecin-6-yl)carbamate], the concentration giving a half-maximal response (EC50) in assay [1] (read-out: LE_1a (EC50, range)) was in the range of 1.01 to 5 nM; in assay [2] (read-out: LE_1b (EC50, range)), 0.51 to 1 nM.

For the compound `COc1cc(F)cc2c(O[C@@H]3C[C@H]4C(=O)N[C@]5(C(=O)NS(=O)(=O)C6(CF)CC6)C[C@H]5/C=C\CC[C@@H](C)O[C@@H](C)[C@H](NC(=O)OC(C)(C)C(F)(F)F)C(=O)N4C3)nccc12` [Compound 2020, 1,1,1-trifluoro-2-methylpropan-2-yl ((2R,6S,7S,9R,13aS,14aR,16aS,Z)-2-((7-fluoro-5-methoxyisoquinolin-1-yl)oxy)-14a-(((1-(fluoromethyl)cyclopropyl)sulfonyl)carbamoyl)-7,9-dimethyl-5,16-dioxo-2,3,5,6,7,9,10,11,13a,14,14a,15,16,16a-tetradecahydro-1H-cyclopropa[i]pyrrolo[1,2-e][1,5,8]oxadiazacyclopentadecin-6-yl)carbamate], the EC50 in assay [1] (read-out: LE_1a (EC50, range)) fell in the range of 1.01 to 5 nM; in assay [2] (read-out: LE_1b (EC50, range)), 0.51 to 1 nM.

Take `COc1cc(F)cc2c(O[C@@H]3C[C@H]4C(=O)N[C@]5(C(=O)NS(=O)(=O)C6(CF)CC6)C[C@H]5/C=C\CC[C@@H](C)O[C@@H](C)[C@H](NC(=O)OC(C)(C)C(C)(F)F)C(=O)N4C3)nccc12` [Compound 2021, 3,3-difluoro-2-methylbutan-2-yl ((2R,6S,7S,9R,13aS,14aR,16aS,Z)-2-((7-fluoro-5-methoxyisoquinolin-1-yl)oxy)-14a-(((1-(fluoromethyl)cyclopropyl)sulfonyl)carbamoyl)-7,9-dimethyl-5,16-dioxo-2,3,5,6,7,9,10,11,13a,14,14a,15,16,16a-tetradecahydro-1H-cyclopropa[i]pyrrolo[1,2-e][1,5,8]oxadiazacyclopentadecin-6-yl)carbamate]: the concentration giving a half-maximal response (EC50) in assay [1] (read-out: LE_1a (EC50, range)) was in the range of 1.01 to 5 nM; in assay [2] (read-out: LE_1b (EC50, range)), 0.51 to 1 nM.

For the compound `COc1cc(F)cc2c(O[C@@H]3C[C@H]4C(=O)N[C@]5(C(=O)NS(=O)(=O)C6(CF)CC6)C[C@H]5/C=C\CC[C@@H](C)O[C@@H](C)[C@H](NC(=O)OC(C)(C)C(F)F)C(=O)N4C3)nccc12` [Compound 2022, 1,1-difluoro-2-methylpropan-2-yl ((2R,6S,7S,9R,13aS,14aR,16aS,Z)-2-((7-fluoro-5-methoxyisoquinolin-1-yl)oxy)-14a-(((1-(fluoromethyl)cyclopropyl)sulfonyl)carbamoyl)-7,9-dimethyl-5,16-dioxo-2,3,5,6,7,9,10,11,13a,14,14a,15,16,16a-tetradecahydro-1H-cyclopropa[i]pyrrolo[1,2-e][1,5,8]oxadiazacyclopentadecin-6-yl)carbamate], the EC50 in assay [1] (read-out: LE_1a (EC50, range)) was 1.01 to 5 nM; in assay [2] (read-out: LE_1b (EC50, range)), 1.01 to 5 nM.

Consider `CC[C@@H]1O[C@H](C)CC/C=C\[C@@H]2C[C@@]2(C(=O)NS(=O)(=O)C2(C)CC2)NC(=O)[C@@H]2C[C@@H](Oc3nc4c(c5ccccc35)CCCO4)CN2C(=O)[C@H]1NC(=O)OC(C)(C)C(C)(F)F` [Compound 2301, 3,3-difluoro-2-methylbutan-2-yl ((2R,6S,7S,9R,13aS,14aR,16aS,Z)-2-((2,3-dihydro-1H-pyrano[2,3-c]isoquinolin-6-yl)oxy)-7-ethyl-9-methyl-14a-(((1-methylcyclopropyl)sulfonyl)carbamoyl)-5,16-dioxo-2,3,5,6,7,9,10,11,13a,14,14a,15,16,16a-tetradecahydro-1H-cyclopropa[i]pyrrolo[1,2-e][1,5,8]oxadiazacyclopentadecin-6-yl)carbamate], for which the concentration for a half-maximal effect (EC50) in assay [1] (read-out: LE_1a (EC50, range)) lay within 0.51 to 1 nM; in assay [2] (read-out: LE_1b (EC50, range)), 0.1 to 0.5 nM.

As for `CC[C@@H]1O[C@H](C)CC/C=C\[C@@H]2C[C@@]2(C(=O)NS(=O)(=O)C2(C)CC2)NC(=O)[C@@H]2C[C@@H](Oc3nc4c(c5ccccc35)CCCO4)CN2C(=O)[C@H]1NC(=O)OC(C)(C)C(F)(F)F` [Compound 2302, 1,1,1-trifluoro-2-methylpropan-2-yl ((2R,6S,7S,9R,13aS,14aR,16aS,Z)-2-((2,3-dihydro-1H-pyrano[2,3-c]isoquinolin-6-yl)oxy)-7-ethyl-9-methyl-14a-(((1-methylcyclopropyl)sulfonyl)carbamoyl)-5,16-dioxo-2,3,5,6,7,9,10,11,13a,14,14a,15,16,16a-tetradecahydro-1H-cyclopropa[i]pyrrolo[1,2-e][1,5,8]oxadiazacyclopentadecin-6-yl)carbamate], the EC50 in assay [1] (read-out: LE_1a (EC50, range)) fell in the range of 0.51 to 1 nM; in assay [2] (read-out: LE_1b (EC50, range)) it was 0.1 to 0.5 nM.
